A word on the inhibition: it is how much of the control response was suppressed. Usually pIC50 stands for the IC50 on a negative log10 scale, so that one unit is a factor of ten. A high value points to a low IC50.

Each structure is given as a SMILES string. pIC50: −log10 of the molar value. “Also recorded” adds a separate entry of the source.

This is an account of results in article PMC10756276, “Highly specific σ2R/TMEM97 ligand FEM-1689 alleviates neuropathic pain and inhibits the integrated stress response” (Proceedings of the National Academy of Sciences of the …, 2023).

The target in data set [1] is T1, 5HT1B (Homo sapiens, UniProt P28222).
T1 construct: purchased NIMH Psychoactive Drug Screening Program (PDSP), University of North Carolina at Chapel Hill
The data set is described as follows: PDSP competitive binding assay. The settings on record: 10 µM test article; read-out: Ki: primary assay inhibition of radioligand binding, 5HT1B.

The target in data set [2] is T2, M3 (Homo sapiens, UniProt P20309).
T2 construct: purchased NIMH Psychoactive Drug Screening Program (PDSP), University of North Carolina at Chapel Hill
In words: PDSP competitive binding assay. The settings on record: 10 µM test article; read-out: Ki: primary assay inhibition of radioligand binding, M3.

The test system of data set [3] is p-eIF2α in mouse DRG neurons. In words: p-eIF2α immunocytochemistry in cultured DRG neurons. The class given is cell-based. The conditions noted are these: for p-eIF2α levels: ISRIB 200 nM. On the procedure: (§1) The ICC protocol was based on a previously published protocol ([76]). […] Cells were blocked with 10% normal goat serum (NGS) in PBS-triton X (0.1%). […] Antibodies were incubated at 4 °C overnight. […] It was washed with PBS twice. […] Images were analyzed using Olympus CellSens. […] Number of cells analyzed are detailed in SI Appendix, Tables S3 and S4. […]
(§2) T his BSA gradient containing the cells was centrifuged at 900g for 5 min at room temperatur e.
(§3) The pellet containing the cells was resuspended in Br ainPhys media (STEMCell #05790) containing 2% […]
(§4) 1% Gluta Max (Gibco # 350 5 0061). Hu man DRG ne uron s were plated a nd grown o n glass coverslips coate d with po ly-D-lysine (Sigma #P7405). C ultured D RG neurons were plated for 24 hours before being treated.
(§5) Methylglyoxal (Sigma- Aldrich #M0252) and F EM- 1689 were serially diluted in media.
(§6) Mouse samples - DRG cultures […]
(§7) anesthesia and decapitated. […]
(§8) section above with minor differences.
(§9) Mouse DRG neurons were grown in
(§10) SAS-0132 and DKR-1677 were […]
(§11) dissolved in 100% DMSO to a final concentr ation of 200mM and stored at - 20 °C. and DKR-1677 were serially diluted in media. Untreated media was completely replaced with media containing each compound. […]
(§12) Slides were […]
(§13) incubated with 1:2 diluted hydrogen peroxide in distilled water for 10 min at r oom temper ature and washed twice in distilled water. The protease IV was applied to each section and incubated for 5 min at room temperature. Slides were w ashed twice in 1X PBS and RNA scope was performed immediately. A mixture of probes - Tmem97, Scn10a, and Fabp7 – was hybridized for 2 hours at 40 °C in a humidity control tray

Data set [4] deals with BiP in mouse DRG neurons. In words: BiP immunocytochemistry in cultured DRG neurons. The class given is cell-based. The conditions noted are these: ISRIB 200 nM. The protocol: as §1, §2, §3, §4, §5, §6, §7, §8, §9, §10, §11, §12, §13
Data set [5] relates to mouse DRG neurons. The data set is described as follows: Neurite outgrowth, Sholl analysis. The class given is cell-based. The settings on record: 100 nM, wild-type neurons. The protocol: Sholl analysis was performed using the Neuroanatomy plugin in ImageJ according to the authors’ recommendations ([77]). Only solitary cells were used for analysis. The area under the curve was calculated using GraphPad Prism. More details are available in SI Appendix. […]
gently layered onto 3 mL of 10% bovine serum albumin (BSA, BioPharm #71- 040-002) in HBSS in a 15 ml falcon tube. T his BSA gradient containing the cells was centrifuged at 900g for 5 min at room temperatur e.
as §3, §4, §5, §6, §7, §8, §9, §10
dissolved in 100% DMSO to a final concentr ation of 200mM and stored at - 20 °C. and DKR-1677 were serially diluted in media. […]
Cultured mouse DRG neur ons from wild- type and TMEM97KO animals were treated w ith either vehicle or FEM-1689 (100 nM). […] The area under the curve was calculated using Graph Pad […]

Data set [6] relates to p-eIF2α in human DRG neurons. In words: p-eIF2α immunocytochemistry in cultured human DRG neurons. The class given is cell-based.

T2 sequence (P20309 whole entry): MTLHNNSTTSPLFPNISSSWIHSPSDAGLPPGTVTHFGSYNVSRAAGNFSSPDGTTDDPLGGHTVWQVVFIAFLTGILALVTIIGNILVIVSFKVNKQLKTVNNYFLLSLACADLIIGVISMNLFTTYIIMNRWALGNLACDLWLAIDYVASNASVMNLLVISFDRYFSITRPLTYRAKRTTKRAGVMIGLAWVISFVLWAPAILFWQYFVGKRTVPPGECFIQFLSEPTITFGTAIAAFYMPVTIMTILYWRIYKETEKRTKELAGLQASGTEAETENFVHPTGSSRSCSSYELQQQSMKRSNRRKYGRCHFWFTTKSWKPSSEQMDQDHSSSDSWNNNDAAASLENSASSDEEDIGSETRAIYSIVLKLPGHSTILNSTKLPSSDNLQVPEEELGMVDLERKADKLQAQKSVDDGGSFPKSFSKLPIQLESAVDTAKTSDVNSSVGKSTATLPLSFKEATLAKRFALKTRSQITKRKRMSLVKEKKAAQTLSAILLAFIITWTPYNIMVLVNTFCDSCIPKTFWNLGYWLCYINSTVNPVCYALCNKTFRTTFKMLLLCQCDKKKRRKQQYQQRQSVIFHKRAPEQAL
T1 sequence (P28222 whole entry): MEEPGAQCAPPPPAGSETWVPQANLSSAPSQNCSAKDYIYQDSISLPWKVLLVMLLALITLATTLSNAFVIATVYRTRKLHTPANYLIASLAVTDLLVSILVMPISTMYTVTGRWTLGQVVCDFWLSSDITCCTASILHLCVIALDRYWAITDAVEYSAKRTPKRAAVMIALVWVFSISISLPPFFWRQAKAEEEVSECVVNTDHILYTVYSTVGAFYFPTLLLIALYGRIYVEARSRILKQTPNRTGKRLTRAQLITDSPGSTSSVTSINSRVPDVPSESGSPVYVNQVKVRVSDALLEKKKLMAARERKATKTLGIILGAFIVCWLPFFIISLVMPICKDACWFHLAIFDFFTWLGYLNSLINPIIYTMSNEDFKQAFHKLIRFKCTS

For `OCCCN1CC[C@@H]2C[C@H]1c1cc(-c3ccc(C(F)(F)F)cc3)ccc12` [FEM-1689], the inhibition at 10 µM in data set [1] and in data set [2] was less than 50% throughout. In addition, the “treatment time of maximal effect on p-eIF2α” value in data set [3] (100 nM, wild-type mouse DRG neurons) is listed as 16 h. For the same compound, the “half-life (t1/2) at reducing p-eIF2α levels in vitro” value in data set [3] (100 nM, wild-type mouse DRG neurons, 0.5-16 h) was determined as 5.0 h. In addition, the negative-log IC50 (pIC50) in data set [3] (DRG neuron, wild-type mouse DRG neurons, 16 h) is 7.52. In addition, the p-eIF2α levels entry in data set [3] (TMEM97KO mouse DRG neurons, 16 h) was “did not respond”; in data set [3] (wild-type mouse DRG neurons, 16 h) it was “reduced p-eIF2α levels”; in data set [6] (10 and 100 nM, 16 h), “significantly reduced p-eIF2α levels”. Further, the “concentration of maximal ISR inhibition (p-eIF2α)” value in data set [3] (wild-type mouse DRG neurons, 16 h, comparable to ISRIB 200 nM) was determined as 100 nM. Further, the BiP levels result in data set [4] (TMEM97KO mouse DRG neurons) is “una ffecte d; also recorded: did not reduce levels of BiP”; in data set [4] (wild-type mouse DRG neurons), “reduced at a high concentration of 1000 nM”. The “neurite outgrowth (Sholl analysis)” value in data set [5] is “increase in the number and complexity of neurites in wild-type neurons; also recorded: promoted neurite outgrowth in wild-type neurons”. Moreover, the “MGO-induced increase in p-eIF2α” value in data set [6] (cotreatment MGO 1 µM and FEM-1689 100 nM) was “prevented this increase; also recorded: prevented an increase in p-eIF2α”.
